Source: patent publication US4087432A, “1H-imidazo(4,5-b)pyridine compounds” (Eli Lilly and Company, priority 1975, dated 1978)

Key:
Barnyard Grass = experiment: General herbicidal effect alone/in combination, barnyard grass; type: in vivo; design: key: 0-10 scale: 0 = no injury, 10 = death; conditions: alone
Method: (§1) Various of the compounds to be employed as active agent in accordance with the present invention were evaluated for preemergent application to various species of plants. In this evaluation, a soil was prepared consisting of one part masonry sand and one part shredded top soil blended together in a cement mixer. One gallon of this soil was placed in a 25 × 35 cm. galvanized flat and was patted down with a bench brush until level. A three-row marker was used to make 21/2 cm. deep furrows in approximately two-fifths of the flat. Crop seeds consisting of four kernels of corn, five cotton seeds and five soybean seeds were placed in these furrows. A four-row template was then placed on the remaining soil and the indicated approximate numbers of each of the following seeds were planted, one species to each section: foxtail (millet), 80-100 seeds; velvetleaf (40-50 seeds); rough pigweed (150-250 seeds); and large crabgrass (100-150 seeds).
(§2) Sufficient soil was added to cover the entire flat. Thus, the weed seeds were covered to a depth of about 6 mm. and the crop seeds were covered to a depth of about 3 cm.
(§3) In assaying the effect of the composition as preemergent herbicides, a flat prepared as above, taken either on the day of planting or on the next day, was placed in a chamber equipped with a turntable and an air exhaust. The herbicidal composition, either a spray-type emulsion or a wettable powder, was applied to the flat with a modified DeVilbiss atomizer hooked to an air source. Twelve and one-half milliliters of the composition under test were applied to each flat either on the day of planting or the succeeding day. Injury ratings and observations as to type of injury were made eleven to twelve days after treatment. The injury rating scale used was as follows:
(§4) 4--death When more than one determination was carried out at a given rate, an average value was calculated for the injury rating. Each compound evaluated was formulated as a spray by one of the following procedures. In one method the particular compound was wetted by grinding in a mortar with one part of polyoxyethylene sorbitan monolaurate. Five hundred parts of water were added slowly to the resultant creamy paste to give an aqueous dispersion with a surfactant concentration of 0.2 percent. This dispersion was entirely satisfactory for spray application. In a second procedure the compound was dissolved in one volume of acetone, and the acetone solution was diluted with nineteen volumes of water containing 0.1 percent of polyoxyethylene sorbitan monolaurate.
(§5) 6-Chloro-1-hydroxy-2-(trifluoromethyl)-1H-imidazo(4,5-b)pyridine was evaluated in combination with 2-chloro-4-ethylamino-6-isopropylamino-s-triazine and separately in combination with 2-chloro-2',6'-diethyl-N-(methoxymethyl)acetanilide for the control of plants. The evaluations were conducted as described in Examples 49-52, except that the rates of compound differed and the species were different. General herbicidal effect was rated on a scale of 0-10, with 0 = no injury and 10 = death. Observations were also made for the following other specific phytotoxic effects.

Lambs Quarter = experiment: General herbicidal effect alone/in combination, lambsquarter; type: in vivo; design: key: 0-10 scale: 0 = no injury, 10 = death; conditions: alone
Method: as §1, §2, §3, §4, §5

Corn [1] = experiment: General herbicidal effect alone/in combination, corn (second Corn column); type: in vivo; design: key: 0-10 scale: 0 = no injury, 10 = death; conditions: alone
Method: as §1, §2, §3, §4, §5

Large Crabgrass = experiment: General herbicidal effect alone/in combination, large crabgrass; type: in vivo; design: key: 0-10 scale: 0 = no injury, 10 = death; conditions: alone
Method: as §1, §2, §3, §4, §5

Velvet Leaf [2] = experiment: General herbicidal effect alone/in combination, velvetleaf; type: in vivo; design: key: 0-10 scale: 0 = no injury, 10 = death; conditions: alone
Method: as §1, §2, §3, §4, §5

Pigweed [3] = experiment: General herbicidal effect alone/in combination, pigweed; type: in vivo; design: key: 0-10 scale: 0 = no injury, 10 = death; conditions: alone
Method: as §1, §2, §3, §4, §5

Rice = experiment: General herbicidal effect alone/in combination, rice; type: in vivo; design: key: 0-10 scale: 0 = no injury, 10 = death; conditions: alone
Method: as §1, §2, §3, §4, §5

Corn [4] = experiment: General herbicidal effect alone/in combination, corn (first Corn column); type: in vivo; design: key: 0-10 scale: 0 = no injury, 10 = death; conditions: alone
Method: as §1, §2, §3, §4, §5

Morning glory = experiment: General herbicidal effect alone/in combination, morning glory; type: in vivo; design: key: 0-10 scale: 0 = no injury, 10 = death; conditions: alone
Method: as §1, §2, §3, §4, §5

Johnson Grass = experiment: General herbicidal effect alone/in combination, Johnson grass; type: in vivo; conditions: alone
Method: as §1, §2, §3, §4, §5

Sorghum = experiment: General herbicidal effect alone/in combination, sorghum; type: in vivo; design: key: 0-10 scale: 0 = no injury, 10 = death; conditions: alone
Method: as §1, §2, §3, §4, §5

Foxtail Millet = experiment: General herbicidal effect alone/in combination, foxtail millet; type: in vivo; design: key: 0-10 scale: 0 = no injury, 10 = death; conditions: alone
Method: as §1, §2, §3, §4, §5

Ragweed = experiment: General herbicidal effect alone/in combination, ragweed; type: in vivo; design: key: 0-10 scale: 0 = no injury, 10 = death; conditions: alone
Method: as §1, §2, §3, §4, §5

Jimsonweed = experiment: General herbicidal effect alone/in combination, jimsonweed; type: in vivo; design: key: 0-10 scale: 0 = no injury, 10 = death; conditions: alone
Method: as §1, §2, §3, §4, §5

Crabgrass = experiment: Postemergent injury rating, crabgrass; type: in vivo, large crabgrass; design: key: injury rating scale, 4 = death; conditions: 8 lbs/acre
Method: as §1, §2, §3, §4
(§6) Representative compounds of the present invention were evaluated for postemergent application to plants including corn and several weed species. The evaluation was carried out in accordance with the procedures of Examples 49-52 except that the test solutions were applied about 9-12 days after the preparation and seeding of the flats.

Pigweed [5] = experiment: Postemergent injury rating, pigweed; type: in vivo, rough pigweed; design: key: injury rating scale, 4 = death; conditions: 8 lbs/acre
Method: as §1, §2, §3, §4, §6

Velvet Leaf [6] = experiment: Postemergent injury rating, velvetleaf; type: in vivo; conditions: 8 lbs/acre
Method: as §1, §2, §3, §4, §6

Foxtail = experiment: Postemergent injury rating, foxtail; type: in vivo, foxtail (millet); design: key: injury rating scale, 4 = death; conditions: 8 lbs/acre
Method: as §1, §2, §3, §4, §6

Corn [7] = experiment: Postemergent injury rating, corn; type: in vivo; design: key: injury rating scale, 4 = death; conditions: 8 lbs/acre
Method: as §1, §2, §3, §4, §6

CCc1cccc(CC)c1N(COC)C(=O)CCl [C, 2-chloro-2',6'-diethyl-N-(methoxymethyl)acetanilide]
herbicidal effect, Barnyard Grass (Barnyard Grass; 0.5 lbs/A): 5SR
herbicidal effect, Barnyard Grass (Barnyard Grass; 1.0 lbs/A): 8S
herbicidal effect, Barnyard Grass (Barnyard Grass; 2.0 lbs/A): 8RSF
herbicidal effect, Barnyard Grass (Barnyard Grass; 4.0 lbs/A): 9.5RS
herbicidal effect, Lambs Quarter (Lambs Quarter; 1.0 lbs/A): 5S
herbicidal effect, Lambs Quarter (Lambs Quarter; 2.0 lbs/A): 10N
herbicidal effect, Lambs Quarter (Lambs Quarter; 4.0 lbs/A): 10N
herbicidal effect, Corn (Corn [1]; 0.5 lbs/A): 0
herbicidal effect, Corn (Corn [1]; 1.0 lbs/A): 0
herbicidal effect, Corn (Corn [1]; 2.0 lbs/A): 1SB
herbicidal effect, Corn (Corn [1]; 4.0 lbs/A): 2S
herbicidal effect, Large Crabgrass (Large Crabgrass; 0.5 lbs/A): 8RS
herbicidal effect, Large Crabgrass (Large Crabgrass; 1.0 lbs/A): 9RS
herbicidal effect, Large Crabgrass (Large Crabgrass; 2.0 lbs/A): 10N
herbicidal effect, Large Crabgrass (Large Crabgrass; 4.0 lbs/A): 10N
herbicidal effect, Velvet leaf (Velvet Leaf [2]; 0.5 lbs/A): 2S
herbicidal effect, Velvet leaf (Velvet Leaf [2]; 1.0 lbs/A): 3S
herbicidal effect, Velvet leaf (Velvet Leaf [2]; 2.0 lbs/A): 6S
herbicidal effect, Velvet leaf (Velvet Leaf [2]; 4.0 lbs/A): 3S
herbicidal effect, Pigweed (Pigweed [3]; 0.5 lbs/A): 7S
herbicidal effect, Pigweed (Pigweed [3]; 1.0 lbs/A): 8SR
herbicidal effect, Pigweed (Pigweed [3]; 2.0 lbs/A): 10N
herbicidal effect, Pigweed (Pigweed [3]; 4.0 lbs/A): 10N
herbicidal effect, Rice (Rice; 0.5 lbs/A): 0
herbicidal effect, Rice (Rice; 1.0 lbs/A): 9RS
herbicidal effect, Rice (Rice; 2.0 lbs/A): 10N
herbicidal effect, Rice (Rice; 4.0 lbs/A): 10N
herbicidal effect, Corn (Corn [4]; 0.5 lbs/A): 0
herbicidal effect, Corn (Corn [4]; 1.0 lbs/A): 0
herbicidal effect, Corn (Corn [4]; 2.0 lbs/A): 2S
herbicidal effect, Corn (Corn [4]; 4.0 lbs/A): 2S
herbicidal effect, Morning glory (Morning glory; 0.5 lbs/A): 0
herbicidal effect, Morning glory (Morning glory; 1.0 lbs/A): 2S
herbicidal effect, Morning glory (Morning glory; 2.0 lbs/A): 2SF
herbicidal effect, Morning glory (Morning glory; 4.0 lbs/A): 3SF
herbicidal effect, Johnson Grass (Johnson Grass; 0.5 lbs/A): 9RS
herbicidal effect, Johnson Grass (Johnson Grass; 1.0 lbs/A): 9RS
herbicidal effect, Johnson Grass (Johnson Grass; 2.0 lbs/A): 9.5RS
herbicidal effect, Johnson Grass (Johnson Grass; 4.0 lbs/A): 10N
herbicidal effect, Sorghum (Sorghum; 0.5 lbs/A): 3SF
herbicidal effect, Sorghum (Sorghum; 1.0 lbs/A): 4SF
herbicidal effect, Sorghum (Sorghum; 2.0 lbs/A): 8SF
herbicidal effect, Sorghum (Sorghum; 4.0 lbs/A): 8SFR
herbicidal effect, Foxtail Millet (Foxtail Millet; 0.5 lbs/A): 9SBR
herbicidal effect, Foxtail Millet (Foxtail Millet; 1.0 lbs/A): 9RSB
herbicidal effect, Foxtail Millet (Foxtail Millet; 2.0 lbs/A): 9.5RSB
herbicidal effect, Foxtail Millet (Foxtail Millet; 4.0 lbs/A): 10D
herbicidal effect, Ragweed (Ragweed; 0.5 lbs/A): 0
herbicidal effect, Ragweed (Ragweed; 1.0 lbs/A): 5S
herbicidal effect, Ragweed (Ragweed; 2.0 lbs/A): 7S
herbicidal effect, Ragweed (Ragweed; 4.0 lbs/A): 8SR
herbicidal effect, Jimsonweed (Jimsonweed; 0.5 lbs/A): 0
herbicidal effect, Jimsonweed (Jimsonweed; 1.0 lbs/A): 3S
herbicidal effect, Jimsonweed (Jimsonweed; 2.0 lbs/A): 4S
herbicidal effect, Jimsonweed (Jimsonweed; 4.0 lbs/A): 5S

Cc1cnc2nc(C(F)(F)F)n(O)c2c1 [6-methyl-1-hydroxy-2-(trifluoromethyl)-1H-imidazo(4,5-b)pyridine]
Injury Rating, Crabgrass (Crabgrass): 3
Injury Rating, Pigweed (Pigweed [5]): 3
Injury Rating, Velvet Leaf (Velvet Leaf [6]): 1
Injury Rating, Foxtail (Foxtail): 3
Injury Rating, Corn (Corn [7]): 1
